Reference: patent US12378519B2, “Microfluidic model of the blood brain barrier” (EMULATE, Inc., priority 2015, dated 2025)

Key:
Type in all cases: cell-based, human
neurons seeded in chip = tested on: neurons seeded in chip
[1] = tested on: BMECs seeded on a microfluidic device; assay: Paracellular permeability assay with Dextran-FITC on chip; details: TNF-alpha exposure, FIG. 14B
Protocol: Albumin or Dextran conjugated to a fluorescent probe (e.g., FITC or TRITC) are frequently used to monitor changes in leakage, and thus barrier function. In this case, Dextran-FITC, a green fluorescent molecule of 4 KDa, or sodium fluorescein (a 0.3 KDa molecule), was added to the bottom (“blood side”) channel. Paracellular permeability was calculated by measuring the permeability of the fluorescent molecule on the Top (“brain side”) channel. […] FIG. 14B involves TNF-alpha exposure, but the readout is membrane permeability as measured by Dextran-FITC.

iBMEC barrier function = assay: TEER measurement on prototype TEER chips under flow; details: exposure of the chips to TNFa after flow, FIG. 14A
Protocol: Cells were plated on tall channel PDMS chips equipped with incorporated gold electrodes on each channel (see FIG. 13A). Post seeding of BMECs, transendothelial electrical resistance was measured by connecting the electrodes to an EVOM2 voltohmmeter (see FIG. 13B). […] The “damaged” chip was a failure due to the TEER-Chips being a prototype.
Higher TEER values generally indicate a tighter barrier, which is typically desirable for a blood-brain barrier.

Compound: NC1=N[C@H](O)[C@H]2[C@H]3O[C@]4(O)O[C@@H]([C@@H](O)[C@@]2(N1)[C@@H]4O)[C@]3(O)CO [TTX, tetrodotoxin]
- neuronal activity (Ca2+ fluxes, dF/F) (neurons seeded in chip): ablates this activity

Compound: TNFa
- membrane permeability as measured by Dextran-FITC [1]: increase in permeability
- iBMEC barrier function (TEER) (iBMEC barrier function): weakening of barrier function
